# What was measured:
# Experiment in all cases: tRNA aminoacylation competition assay, MALDI-TOF MS
# Assay type in all cases: biochemical
# HisRS = target: T1, HisRS (Escherichia coli, UniProt P60906); conditions: 15000 µM; 15 µM natural His (Table 3), 6 mM ATP, 17 mM MgCl2, E. coli total tRNA, pH 7.4, 37 °C; competitive
# T1 construct: gene hisS; His-tagged, recombinant, purified
# T1 sequence (P60906 2-424): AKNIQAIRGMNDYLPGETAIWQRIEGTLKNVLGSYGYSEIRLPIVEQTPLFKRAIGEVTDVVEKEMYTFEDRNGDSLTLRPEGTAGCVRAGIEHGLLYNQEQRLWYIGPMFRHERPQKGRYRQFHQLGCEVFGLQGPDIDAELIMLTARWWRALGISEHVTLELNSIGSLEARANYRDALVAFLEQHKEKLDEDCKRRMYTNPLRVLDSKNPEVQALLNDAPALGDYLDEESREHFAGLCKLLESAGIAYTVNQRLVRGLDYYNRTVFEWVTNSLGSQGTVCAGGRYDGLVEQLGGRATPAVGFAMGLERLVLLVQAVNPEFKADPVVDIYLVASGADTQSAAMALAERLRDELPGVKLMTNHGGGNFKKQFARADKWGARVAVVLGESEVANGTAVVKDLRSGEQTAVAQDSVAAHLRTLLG
# Description: tRNA aminoacylation competition assay, MALDI-TOF MS on HisRS
# TyrRS = target: T2, TyrRS (Escherichia coli, UniProt P0AGJ9); conditions: 5000 µM; 5 µM natural Tyr (Table 3), 6 mM ATP, 17 mM MgCl2, E. coli total tRNA, pH 7.4, 37 °C; competitive
# T2 construct: gene tyrS; His-tagged, recombinant, purified
# Description: tRNA aminoacylation competition assay, MALDI-TOF MS on TyrRS
# GluRS = target: T3, GluRS (Escherichia coli, UniProt P04805); conditions: 10000 µM; 10 µM natural Glu (Table 3), 6 mM ATP, 17 mM MgCl2, E. coli total tRNA, pH 7.4, 37 °C; competitive
# T3 construct: gene gltX; His-tagged, recombinant, purified
# T3 sequence (P04805 1-471): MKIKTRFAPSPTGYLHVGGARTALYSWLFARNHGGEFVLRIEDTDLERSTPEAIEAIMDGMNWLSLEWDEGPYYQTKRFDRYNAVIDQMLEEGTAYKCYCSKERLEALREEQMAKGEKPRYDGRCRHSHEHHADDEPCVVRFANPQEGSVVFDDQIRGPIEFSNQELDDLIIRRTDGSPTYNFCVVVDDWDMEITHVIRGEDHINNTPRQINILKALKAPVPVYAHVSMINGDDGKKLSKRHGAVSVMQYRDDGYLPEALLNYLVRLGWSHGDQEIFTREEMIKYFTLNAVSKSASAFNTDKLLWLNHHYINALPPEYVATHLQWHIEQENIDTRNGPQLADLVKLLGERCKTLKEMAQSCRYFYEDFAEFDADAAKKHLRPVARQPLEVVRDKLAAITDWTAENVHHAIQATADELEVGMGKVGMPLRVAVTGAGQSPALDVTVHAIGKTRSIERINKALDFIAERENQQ
# Description: tRNA aminoacylation competition assay, MALDI-TOF MS on GluRS
# TrpRS = target: T4, TrpRS (Escherichia coli, UniProt P00954); conditions: 30000 µM; 30 µM natural Trp (Table 3), 6 mM ATP, 17 mM MgCl2, E. coli total tRNA, pH 7.4, 37 °C; competitive
# T4 construct: gene trpS
# Description: tRNA aminoacylation competition assay, MALDI-TOF MS on TrpRS
# AspRS = target: T5, AspRS (Escherichia coli, UniProt P21889); conditions: 50000 µM; 50 µM natural Asp (Table 3), 6 mM ATP, 17 mM MgCl2, E. coli total tRNA, pH 7.4, 37 °C; competitive
# T5 construct: gene aspS; His-tagged, recombinant, purified
# Description: tRNA aminoacylation competition assay, MALDI-TOF MS on AspRS
# ArgRS = target: T6, ArgRS (Escherichia coli, UniProt P11875); conditions: 20000 µM; 20 µM natural Arg (Table 3), 6 mM ATP, 17 mM MgCl2, E. coli total tRNA, pH 7.4, 37 °C; competitive
# T6 construct: gene argS; His-tagged, recombinant, purified
# T6 sequence (P11875 1-577): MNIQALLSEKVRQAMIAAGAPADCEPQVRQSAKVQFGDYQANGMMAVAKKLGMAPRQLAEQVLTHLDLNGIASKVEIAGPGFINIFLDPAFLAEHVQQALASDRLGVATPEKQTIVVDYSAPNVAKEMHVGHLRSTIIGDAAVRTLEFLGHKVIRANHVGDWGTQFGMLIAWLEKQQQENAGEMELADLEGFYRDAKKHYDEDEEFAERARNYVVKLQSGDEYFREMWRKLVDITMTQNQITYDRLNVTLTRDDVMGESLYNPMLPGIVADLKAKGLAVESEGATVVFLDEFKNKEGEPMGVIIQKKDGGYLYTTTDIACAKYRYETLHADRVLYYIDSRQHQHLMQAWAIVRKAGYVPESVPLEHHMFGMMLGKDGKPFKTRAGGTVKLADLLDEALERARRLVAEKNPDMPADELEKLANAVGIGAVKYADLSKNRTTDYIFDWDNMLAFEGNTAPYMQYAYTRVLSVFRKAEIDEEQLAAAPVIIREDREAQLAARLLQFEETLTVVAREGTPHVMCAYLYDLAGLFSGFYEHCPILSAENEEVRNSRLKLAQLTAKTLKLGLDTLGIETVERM
# Description: tRNA aminoacylation competition assay, MALDI-TOF MS on ArgRS
# MetRS = target: T7, MetRS (Escherichia coli, UniProt P00959); conditions: 50000 µM; 50 µM natural Met (Table 3), 6 mM ATP, 17 mM MgCl2, E. coli total tRNA, pH 7.4, 37 °C; competitive
# T7 construct: gene metG; His-tagged, recombinant, purified
# T7 sequence (P00959 2-677): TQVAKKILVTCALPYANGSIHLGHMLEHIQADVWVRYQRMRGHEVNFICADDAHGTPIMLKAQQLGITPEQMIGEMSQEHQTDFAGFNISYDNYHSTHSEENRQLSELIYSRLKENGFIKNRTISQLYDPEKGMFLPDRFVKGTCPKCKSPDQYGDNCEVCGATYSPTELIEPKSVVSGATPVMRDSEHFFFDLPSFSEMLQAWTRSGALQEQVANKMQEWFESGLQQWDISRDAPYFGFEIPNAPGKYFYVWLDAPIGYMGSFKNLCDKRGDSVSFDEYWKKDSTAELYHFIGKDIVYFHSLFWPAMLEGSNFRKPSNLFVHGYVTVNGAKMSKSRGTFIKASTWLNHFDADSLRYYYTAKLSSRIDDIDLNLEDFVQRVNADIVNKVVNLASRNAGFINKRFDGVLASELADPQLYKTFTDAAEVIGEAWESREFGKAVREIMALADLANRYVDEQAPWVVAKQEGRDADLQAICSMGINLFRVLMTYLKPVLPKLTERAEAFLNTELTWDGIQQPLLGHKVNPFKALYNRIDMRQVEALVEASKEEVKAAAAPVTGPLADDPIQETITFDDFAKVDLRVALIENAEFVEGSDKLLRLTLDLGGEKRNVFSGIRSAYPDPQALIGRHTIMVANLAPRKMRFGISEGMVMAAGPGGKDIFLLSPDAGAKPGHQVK
# Description: tRNA aminoacylation competition assay, MALDI-TOF MS on MetRS
# ValRS = target: T8, ValRS (Escherichia coli, UniProt P07118); conditions: 50000 µM; 50 µM natural Val (Table 3), 6 mM ATP, 17 mM MgCl2, E. coli total tRNA, pH 7.4, 37 °C; competitive
# T8 construct: gene valS; His-tagged, recombinant, purified
# T8 sequence (P07118 1-951): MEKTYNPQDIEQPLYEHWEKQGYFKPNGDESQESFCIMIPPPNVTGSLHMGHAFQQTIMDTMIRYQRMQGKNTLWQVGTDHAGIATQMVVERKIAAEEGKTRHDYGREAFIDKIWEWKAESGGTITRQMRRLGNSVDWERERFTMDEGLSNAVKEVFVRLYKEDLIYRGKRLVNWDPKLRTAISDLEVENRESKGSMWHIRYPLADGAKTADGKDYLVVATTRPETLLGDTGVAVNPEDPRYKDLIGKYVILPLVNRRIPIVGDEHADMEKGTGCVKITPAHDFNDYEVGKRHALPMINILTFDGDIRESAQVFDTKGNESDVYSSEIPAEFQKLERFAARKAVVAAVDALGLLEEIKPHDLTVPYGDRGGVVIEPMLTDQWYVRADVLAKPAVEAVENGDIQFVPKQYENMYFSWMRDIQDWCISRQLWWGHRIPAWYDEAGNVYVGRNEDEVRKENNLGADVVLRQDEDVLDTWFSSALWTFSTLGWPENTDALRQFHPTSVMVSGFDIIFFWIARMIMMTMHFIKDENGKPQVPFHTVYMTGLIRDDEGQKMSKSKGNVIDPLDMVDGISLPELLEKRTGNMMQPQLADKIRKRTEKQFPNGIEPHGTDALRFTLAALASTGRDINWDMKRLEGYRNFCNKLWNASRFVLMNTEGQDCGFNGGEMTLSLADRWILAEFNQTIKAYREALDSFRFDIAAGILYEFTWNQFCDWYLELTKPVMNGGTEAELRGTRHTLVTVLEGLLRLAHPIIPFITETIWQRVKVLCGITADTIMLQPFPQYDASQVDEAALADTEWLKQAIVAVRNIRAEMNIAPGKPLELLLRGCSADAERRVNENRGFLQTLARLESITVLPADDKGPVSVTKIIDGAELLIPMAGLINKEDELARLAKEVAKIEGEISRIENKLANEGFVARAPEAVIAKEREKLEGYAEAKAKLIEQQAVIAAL
# Description: tRNA aminoacylation competition assay, MALDI-TOF MS on ValRS
# LeuRS = target: T9, LeuRS (Escherichia coli, UniProt P07813); conditions: 30000 µM; 30 µM natural Leu (Table 3), 6 mM ATP, 17 mM MgCl2, E. coli total tRNA, pH 7.4, 37 °C; competitive
# T9 construct: gene leuS; His-tagged, recombinant, purified; wild-type
# Description: tRNA aminoacylation competition assay, MALDI-TOF MS on LeuRS
# ProRS = target: T10, ProRS (Escherichia coli, UniProt P16659); conditions: 50000 µM; 50 µM natural Pro (Table 3), 6 mM ATP, 17 mM MgCl2, E. coli total tRNA, pH 7.4, 37 °C; competitive
# T10 construct: gene proS; His-tagged, recombinant, purified
# T10 sequence (P16659 1-572): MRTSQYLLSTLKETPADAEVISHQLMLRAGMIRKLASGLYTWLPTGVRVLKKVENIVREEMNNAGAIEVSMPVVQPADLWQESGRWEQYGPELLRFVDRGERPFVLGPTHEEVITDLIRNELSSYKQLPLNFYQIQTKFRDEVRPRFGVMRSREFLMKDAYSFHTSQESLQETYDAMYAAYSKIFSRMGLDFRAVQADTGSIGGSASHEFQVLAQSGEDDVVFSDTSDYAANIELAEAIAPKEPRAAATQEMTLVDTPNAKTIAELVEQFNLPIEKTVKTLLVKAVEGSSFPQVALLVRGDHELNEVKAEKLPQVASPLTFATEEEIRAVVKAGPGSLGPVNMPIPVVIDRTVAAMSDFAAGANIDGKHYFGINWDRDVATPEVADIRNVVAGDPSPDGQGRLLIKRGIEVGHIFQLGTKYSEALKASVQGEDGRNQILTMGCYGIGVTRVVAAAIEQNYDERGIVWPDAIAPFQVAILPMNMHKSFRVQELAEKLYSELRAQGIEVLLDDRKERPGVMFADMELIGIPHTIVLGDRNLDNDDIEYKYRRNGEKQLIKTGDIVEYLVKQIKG
# Description: tRNA aminoacylation competition assay, MALDI-TOF MS on ProRS
compound,measurement,setting,value
"N[C@@H](Cc1nccs1)C(=O)O [A1, β-2-thiazolyl-alanine]",% Inhibition ^b,HisRS,20 (range 0.4) %
"NC(Cc1ccc(O)c(F)c1)C(=O)O (stereo not drawn) [A3, 3-fluoro tyrosine]",% Inhibition ^b,TyrRS,46 (range 23.0) %
"N[C@@H](Cn1oc(=O)[nH]c1=O)C(=O)O [A15, L-quisqualic acid]",% Inhibition ^b,GluRS,52 (range 1.2) %
"N[C@@H](Cc1csc2ccccc12)C(=O)O [A23, 3-(thianaphthen-3-yl)-L-alanine]",% Inhibition ^b,TrpRS,19 (range 2.7) %
"N[C@H](C(=O)O)[C@H](O)C(=O)O [C6, L-threo-β-hydroxy aspartic acid]",% Inhibition ^b,AspRS,59 (range 0.5) %
"N=C(N)NOCC[C@H](N)C(=O)O [C10, L-canavanine]",% Inhibition ^b,ArgRS,82 (range 10.3) %
"C#CCCC(N)C(=O)O (stereo not drawn) [N1, 2-amino hex-5-ynoic acid]",% Inhibition ^b,MetRS,82 (range 3.3) %
"CCCC[C@H](N)C(=O)O [N3, L-norleucine]",% Inhibition ^b,MetRS,73 (range 0.5) %
[N-]=[N+]=NCC[C@H](N)C(=O)O [N6],% Inhibition ^b,MetRS,97 (range 0.5) %
"CC(C)(C)C(N)C(=O)O (stereo not drawn) [N13, t-butyl-glycine]",% Inhibition ^b,ValRS,80 (range 0.4) %
"CC(CC(N)C(=O)O)C(F)(F)F (stereo not drawn) [N17, 5′,5′,5′-trifluoro leucine]",% Inhibition ^b,LeuRS,83 (range 16.7) %
"CC(C)(C)C[C@H](N)C(=O)O [N18, β-t-butyl-alanine]",% Inhibition ^b,LeuRS,52 (range 22.2) %
"O=C(O)[C@@H]1C=CCN1 [N23, 3,4-dehydro proline]",% Inhibition ^b,ProRS,67 (range 12.6) %
"O=C(O)[C@@H]1CCN1 [N24, L-azetidine-2-carboxylic acid]",% Inhibition ^b,ProRS,28 (range 10.0) %
"NC1(C(=O)O)CCCC1 [α1, 1-amino cyclopentanoic acid]",% Inhibition ^b,ValRS,59 (range 3.3) %

# Reference: publication PMC1989143, “An Expanded Set of Amino Acid Analogs for the Ribosomal Translation of Unnatural Peptides” (PLoS ONE, 2007)
